Calls of active or inactive are those of the source. No cut-off for these calls is given here.
Experiments:
[1] = molecular target: Serine/threonine-protein kinase PLK1 (Homo sapiens) (UniProt P53350); assay: Inhibition of HA-EGFP tagged Plk1 polo-box domain (unknown origin) expressed in 293A cells assessed as inhibition of biotin-p-T78 binding up to 150 uM after 1 hr by ELISA; assay type: cell-based
[2] = molecular target: Serine/threonine-protein kinase PLK3 (Homo sapiens) (UniProt Q9H4B4); assay: Inhibition of Plk3 polo-box domain (unknown origin) assessed as inhibition of 5-carboxyfluorescein-Ahx-GPLATS-pT-PKNG binding after 10 mins by fluorescence polarization assay
[3] = molecular target: Serine/threonine-protein kinase PLK2 (Homo sapiens) (UniProt Q9NYY3); assay: Inhibition of Plk2 polo-box domain (unknown origin) assessed as inhibition of 5-carboxyfluorescein-Ahx-GPMQTS-pT-PKNG binding after 10 mins by fluorescence polarization assay
Sequence of Serine/threonine-protein kinase PLK2 (Homo sapiens) (Q9NYY3 whole entry, looked up, the tested form may be a part): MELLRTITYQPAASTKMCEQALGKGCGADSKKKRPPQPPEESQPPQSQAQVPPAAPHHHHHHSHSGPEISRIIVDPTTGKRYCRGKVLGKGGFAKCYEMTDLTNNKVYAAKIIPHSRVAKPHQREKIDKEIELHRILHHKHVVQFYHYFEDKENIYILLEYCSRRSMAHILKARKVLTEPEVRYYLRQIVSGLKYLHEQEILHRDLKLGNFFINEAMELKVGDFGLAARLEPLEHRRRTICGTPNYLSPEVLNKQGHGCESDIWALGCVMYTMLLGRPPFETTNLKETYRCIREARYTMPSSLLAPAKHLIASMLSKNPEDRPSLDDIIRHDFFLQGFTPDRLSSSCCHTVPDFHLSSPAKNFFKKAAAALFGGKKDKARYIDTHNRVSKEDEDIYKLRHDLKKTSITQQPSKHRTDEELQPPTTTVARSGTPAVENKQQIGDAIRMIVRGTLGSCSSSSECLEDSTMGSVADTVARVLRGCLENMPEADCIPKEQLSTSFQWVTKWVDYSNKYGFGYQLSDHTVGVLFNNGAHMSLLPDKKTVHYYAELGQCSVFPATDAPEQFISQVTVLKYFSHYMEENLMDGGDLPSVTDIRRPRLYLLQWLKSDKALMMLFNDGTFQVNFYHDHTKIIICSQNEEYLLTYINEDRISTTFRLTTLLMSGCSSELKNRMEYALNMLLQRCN

Sequence of Serine/threonine-protein kinase PLK1 (Homo sapiens) (P53350 whole entry, the tested form may be a part): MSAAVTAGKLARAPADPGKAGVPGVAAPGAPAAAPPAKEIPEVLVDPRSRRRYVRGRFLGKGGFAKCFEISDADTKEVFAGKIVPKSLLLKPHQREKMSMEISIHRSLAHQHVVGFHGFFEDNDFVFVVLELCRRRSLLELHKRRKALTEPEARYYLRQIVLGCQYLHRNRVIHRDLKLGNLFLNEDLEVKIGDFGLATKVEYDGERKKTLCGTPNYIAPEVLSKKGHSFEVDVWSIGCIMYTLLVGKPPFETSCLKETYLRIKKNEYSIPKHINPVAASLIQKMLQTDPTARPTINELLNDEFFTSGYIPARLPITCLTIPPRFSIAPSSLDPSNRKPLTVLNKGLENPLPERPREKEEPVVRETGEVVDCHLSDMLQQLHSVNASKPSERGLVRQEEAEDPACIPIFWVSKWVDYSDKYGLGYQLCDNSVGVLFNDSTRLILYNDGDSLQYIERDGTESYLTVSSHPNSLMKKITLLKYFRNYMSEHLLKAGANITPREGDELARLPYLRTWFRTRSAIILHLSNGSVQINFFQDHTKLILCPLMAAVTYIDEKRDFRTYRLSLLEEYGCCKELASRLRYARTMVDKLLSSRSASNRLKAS
Sequence of Serine/threonine-protein kinase PLK3 (Homo sapiens) (Q9H4B4 whole entry, looked up, the tested form may be a part): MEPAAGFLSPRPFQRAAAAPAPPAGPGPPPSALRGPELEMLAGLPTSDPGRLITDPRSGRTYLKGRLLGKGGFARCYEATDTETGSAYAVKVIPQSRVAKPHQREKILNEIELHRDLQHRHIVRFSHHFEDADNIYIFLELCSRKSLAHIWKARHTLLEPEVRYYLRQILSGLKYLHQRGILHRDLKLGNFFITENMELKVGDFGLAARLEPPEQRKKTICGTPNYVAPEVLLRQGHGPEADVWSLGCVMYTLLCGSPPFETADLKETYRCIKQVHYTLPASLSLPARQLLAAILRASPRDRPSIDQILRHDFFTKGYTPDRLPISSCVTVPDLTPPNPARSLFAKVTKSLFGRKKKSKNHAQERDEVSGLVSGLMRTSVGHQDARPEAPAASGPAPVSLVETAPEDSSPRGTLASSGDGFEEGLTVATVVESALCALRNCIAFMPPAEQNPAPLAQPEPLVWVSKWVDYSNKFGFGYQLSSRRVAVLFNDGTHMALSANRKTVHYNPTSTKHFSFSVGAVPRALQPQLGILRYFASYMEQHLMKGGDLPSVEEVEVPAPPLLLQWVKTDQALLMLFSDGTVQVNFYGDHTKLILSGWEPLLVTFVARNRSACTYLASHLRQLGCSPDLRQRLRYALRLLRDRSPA

| Structure (SMILES) | inhibition [1] | inhibition [2] | inhibition [3] |
| --- | --- | --- | --- |
| CC(=O)n1cc(CCNC(=O)CCN2CC(=O)N[C@@H](CC(C)C)C(=O)N[C@@H](Cc3c[nH]cn3)C(=O)N[C@@H](CO)C(=O)N[C@@H]([C@@H](C)OP(=O)(O)O)C(=O)N[C@@H](C(N)=O)CSCC2=O)c2ccccc21 | Active |  |  |
| CC(=O)n1cc(CCNC(=O)CCCCCN2CC(=O)N[C@@H](CC(C)C)C(=O)N[C@@H](Cc3c[nH]cn3)C(=O)N[C@@H](CO)C(=O)N[C@@H]([C@@H](C)OP(=O)(O)O)C(=O)N[C@@H](C(N)=O)CSCC2=O)c2ccccc21 |  | inactive | inactive |
| CC(=O)n1cc(CCNC(=O)CCCCN2CC(=O)N[C@@H](CC(C)C)C(=O)N[C@@H](Cc3c[nH]cn3)C(=O)N[C@@H](CO)C(=O)N[C@@H]([C@@H](C)OP(=O)(O)O)C(=O)N[C@@H](C(N)=O)CSCC2=O)c2ccccc21 | Active |  |  |
| CC(=O)n1cc(CCNC(=O)CCCCCN2CC(=O)N[C@@H](CC(C)C)C(=O)N[C@@H](Cc3cncn3CCCCCCCCc3ccccc3)C(=O)N[C@@H](CO)C(=O)N[C@@H]([C@@H](C)OP(=O)(O)O)C(=O)N[C@@H](C(N)=O)CSCC2=O)c2ccccc21 |  | inactive | inactive |
